US20240270741A1 (Cogent Biosciences, Inc., priority 2023, published 2024)

biological target: FGFR2 (Homo sapiens, UniProt P21802); test: FGFR wild type enzyme assay (HTRF KinEASE-TK), FGFR2; details: Enz FGFR2 (nM), FGFR2 wild type enzyme
Sequence (P21802 399-821 limits assumed): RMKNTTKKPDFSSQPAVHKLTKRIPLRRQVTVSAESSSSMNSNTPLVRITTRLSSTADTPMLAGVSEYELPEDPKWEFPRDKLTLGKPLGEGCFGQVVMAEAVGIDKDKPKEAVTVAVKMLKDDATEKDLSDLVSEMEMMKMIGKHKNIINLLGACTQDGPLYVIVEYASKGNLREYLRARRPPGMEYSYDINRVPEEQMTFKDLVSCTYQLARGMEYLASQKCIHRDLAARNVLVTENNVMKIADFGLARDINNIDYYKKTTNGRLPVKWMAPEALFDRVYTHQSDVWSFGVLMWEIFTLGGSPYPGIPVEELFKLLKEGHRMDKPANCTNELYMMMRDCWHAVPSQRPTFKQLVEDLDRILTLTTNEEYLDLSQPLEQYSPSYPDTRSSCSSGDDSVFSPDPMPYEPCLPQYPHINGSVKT

| IC50 [nM] | Structure (SMILES) |
| --- | --- |
| 2 | CO[C@H](C)CN1CCC(n2ncc(-c3cc(Sc4ncccc4F)c4c(C#N)cnn4c3)c2C)CC1 [Example 148, (R)-4-((3-fluoropyridin-2-yl)thio)-6-(1-(1-(2-methoxypropyl)piperidin-4-yl)-5-methyl-1H-pyrazol-4-yl)pyrazolo[1,5-a]pyridine-3-carbonitrile] |
| 2 | CO[C@@H](C)CN1CCC(n2ncc(-c3cc(Sc4ncccc4F)c4c(C#N)cnn4c3)c2C)CC1 [Example 149, (S)-4-((3-fluoropyridin-2-yl)thio)-6-(1-(1-(2-methoxypropyl)piperidin-4-yl)-5-methyl-1H-pyrazol-4-yl)pyrazolo[1,5-a]pyridine-3-carbonitrile] |
| 4 | Cc1c(-c2cc(Sc3ncccc3F)c3c(C#N)cnn3c2)cnn1C[C@@H]1CCCNC1 [Example 150, (R)-4-((3-fluoropyridin-2-yl)thio)-6-(5-methyl-1-(piperidin-3-ylmethyl)-1H-pyrazol-4-yl)pyrazolo[1,5-a]pyridine-3-carbonitrile] |
| 2 | Cc1c(-c2cc(Sc3c(F)cc(F)cc3C#N)c3c(C#N)cnn3c2)cnn1C1CCN(C)CC1 [Example 151] |
| 2 | CC(=O)N1CCC(n2ncc(-c3cc(Sc4ncccc4F)c4c(C#N)cnn4c3)c2C)CC1 [Example 152, 6-(1-(1-acetylpiperidin-4-yl)-5-methyl-1H-pyrazol-4-yl)-4-((3-fluoropyridin-2-yl)thio)pyrazolo[1,5-a]pyridine-3-carbonitrile] |
| 2 | Cc1c(-c2cc(Sc3ncccc3F)c3c(C#N)cnn3c2)cnn1C1CCN(S(C)(=O)=O)CC1 [Example 153, 4-[(3-fluoro-2-pyridyl)sulfanyl]-6-[5-methyl-1-(1-methylsulfonyl-4-piperidyl)pyrazol-4-yl]pyrazolo[1,5-a]pyridine-3-carbonitrile] |
| 2 | Cc1c(-c2cc(Sc3ncccc3F)c3c(C#N)cnn3c2)cnn1[C@H]1CCNC[C@@H]1F [Example 154, 6-[1-[(3S,4S)-3-fluoro-4-piperidyl]-5-methyl-pyrazol-4-yl]-4-[(3-fluoro-2-pyridyl)sulfanyl]pyrazolo[1,5-a]pyridine-3-carbonitrile] |
| 1 | CO[C@@H](C)CN1CCC(n2ncc(-c3cc(Sc4ccccc4C#N)c4c(C#N)cnn4c3)c2C)CC1 [Example 157, (S)-4-((2-cyanophenyl)thio)-6-(1-(1-(2-methoxypropyl)piperidin-4-yl)-5-methyl-1H-pyrazol-4-yl)pyrazolo[1,5-a]pyridine-3-carbonitrile] |
| 2 | COCC(C)N1CCC(n2ncc(-c3cc(Sc4ncccc4F)c4c(C#N)cnn4c3)c2C)CC1 (stereo not drawn) [Example 158, 4-((3-fluoropyridin-2-yl)thio)-6-(1-(1-(1-methoxypropan-2-yl)piperidin-4-yl)-5-methyl-1H-pyrazol-4-yl)pyrazolo[1,5-a]pyridine-3-carbonitrile] |
| 0.5 | Cc1c(-c2cc(Sc3ccccc3C#N)c3c(C#N)cnn3c2)cnn1C1CCC(N(C)C)CC1 (stereo not drawn) [Example 159] |
| 2 | Cc1c(-c2cc(Sc3ncccc3F)c3c(C#N)cnn3c2)cnn1[C@@H](C)C1CCN(C)CC1 [Example 160, (S)-4-((3-fluoropyridin-2-yl)thio)-6-(5-methyl-1-(1-(1-methylpiperidin-4-yl)ethyl)-1H-pyrazol-4-yl)pyrazolo[1,5-a]pyridine-3-carbonitrile] |
| 2 | Cc1c(-c2cc(Sc3ncccc3F)c3c(C#N)cnn3c2)cnn1[C@@H](C)C1CCNCC1 [Example 161, 4-[(3-fluoro-2-pyridyl)sulfanyl]-6-[5-methyl-1-[(1S)-1-(4-piperidyl)ethyl]pyrazol-4-yl]pyrazolo[1,5-a]pyridine-3-carbonitrile] |
| 1 | Cc1c(-c2cc(Sc3ncccc3F)c3c(C#N)cnn3c2)cnn1C1CC2(CCNCC2)C1 [Example 162, 4-((3-fluoropyridin-2-yl)thio)-6-(5-methyl-1-(7-azaspiro[3.5]nonan-2-yl)-1H-pyrazol-4-yl)pyrazolo[1,5-a]pyridine-3-carbonitrile] |
| 3 | Cc1c(-c2cc(Sc3ncccc3F)c3c(C#N)cnn3c2)cnn1C1CCN(C(=O)CO)CC1 [Example 163, 4-((3-fluoropyridin-2-yl)thio)-6-(1-(1-(2-hydroxyacetyl)piperidin-4-yl)-5-methyl-1H-pyrazol-4-yl)pyrazolo[1,5-a]pyridine-3-carbonitrile] |
| 5 | CC(=O)N1CCC(n2ncc(-c3cc(Sc4ncc(F)cc4F)c4c(C#N)cnn4c3)c2C)CC1 [Example 164, 6-(1-(1-acetylpiperidin-4-yl)-5-methyl-1H-pyrazol-4-yl)-4-((3,5-difluoropyridin-2-yl)thio)pyrazolo[1,5-a]pyridine-3-carbonitrile] |
| 2 | Cc1c(-c2cc(Sc3ncccc3F)c3c(C#N)cnn3c2)cnn1[C@H]1CCCN(S(C)(=O)=O)C1 [Example 165, (S)-4-((3-fluoropyridin-2-yl)thio)-6-(5-methyl-1-(1-(methylsulfonyl)piperidin-3-yl)-1H-pyrazol-4-yl)pyrazolo[1,5-a]pyridine-3-carbonitrile] |
| 2 | CC(=O)N1CCC[C@H](n2ncc(-c3cc(Sc4ncccc4F)c4c(C#N)cnn4c3)c2C)C1 [Example 166, (S)-6-(1-(1-acetylpiperidin-3-yl)-5-methyl-1H-pyrazol-4-yl)-4-((3-fluoropyridin-2-yl)thio)pyrazolo[1,5-a]pyridine-3-carbonitrile] |

| IC50 [nM] | Structure (SMILES) |
| --- | --- |
| 2 | Cc1c(-c2cc(Sc3ncccc3F)c3c(C#N)cnn3c2)cnn1[C@H]1CCCN(C(=O)CO)C1 [Example 167, (S)-4-((3-fluoropyridin-2-yl)thio)-6-(1-(1-(2-hydroxyacetyl)piperidin-3-yl)-5-methyl-1H-pyrazol-4-yl)pyrazolo[1,5-a]pyridine-3-carbonitrile] |
| 1 | Cc1c(F)ccc(Sc2cc(-c3cnn(C4CCNCC4)c3C)cn3ncc(C#N)c23)c1C#N [Example 168] |
| 0.4 | C[C@H](O)CN1CC[C@@H](n2cc(-c3cc(Sc4ccccc4C#N)c4c(C#N)cnn4c3)cn2)C1 [Example 169, 4-(2-cyanophenyl)sulfanyl-6-[1-[(3R)-1-[(2S)-2-hydroxypropyl]pyrrolidin-3-yl]pyrazol-4-yl]pyrazolo[1,5-a]pyridine-3-carbonitrile] |
| 72 | Cc1c(-c2cc(Sc3ccccc3C#N)c3c(C#N)cnn3c2)cnn1C[C@@H]1CCCNC1 [Example 170, 4-(2-cyanophenyl)sulfanyl-6-[5-methyl-1-[[(3R)-3-piperidyl]methyl]pyrazol-4-yl]pyrazolo[1,5-a]pyridine-3-carbonitrile] |
| 1 | Cc1c(-c2cc(Sc3ncccc3F)c3c(C#N)cnn3c2)cnn1C1CCC(N(C)C)CC1 (stereo not drawn) [Example 171] |
| 1 | CCN(C)C1CCC(n2ncc(-c3cc(Sc4ncccc4F)c4c(C#N)cnn4c3)c2C)CC1 (stereo not drawn) [Example 172, 6-(1-(4-(ethyl(methyl)amino)cyclo-hexyl)-5-methyl-1H-pyrazol-4-yl)-4-((3-fluoropyridin-2-yl)thio)pyrazolo[1,5-a]pyridine-3-carbonitrile] |
| 1 | Cc1c(-c2cc(Sc3ncccc3F)c3c(C#N)cnn3c2)cnn1C1CCC(N(C)C(=O)CN(C)C)CC1 (stereo not drawn) [Example 173, N-(4-(4-(3-cyano-4-((3-fluoropyridin-2-yl)thio)pyrazolo[1,5-a]pyridin-6-yl)-5-methyl-1H-pyrazol-1-yl)cyclohexyl)-2-(dimethylamino)-N-methylacetamide] |
| 4 | CC(=O)N1CCC([C@@H](C)n2ncc(-c3cc(Sc4ncccc4F)c4c(C#N)cnn4c3)c2C)CC1 [Example 174, (R)-6-(1-(1-(1-acetylpiperidin-4-yl)ethyl)-5-methyl-1H-pyrazol-4-yl)-4-((3-fluoropyridin-2-yl)thio)pyrazolo[1,5-a]pyridine-3-carbonitrile] |
| 1 | Cc1c(-c2cc(Sc3ncccc3F)c3c(C#N)cnn3c2)cnn1[C@H]1CC[C@@]2(CCNC2)CC1 [Example 175, 4-((3-fluoropyridin-2-yl)thio)-6-(5-methyl-1-((5r,8r)-2-azaspiro[4.5]decan-8-yl)-1H-pyrazol-4-yl)pyrazolo[1,5-a]pyridine-3-carbonitrile] |
| 1.5 | CC(=O)N1CCC2(CC1)CC(n1ncc(-c3cc(Sc4ncccc4F)c4c(C#N)cnn4c3)c1C)C2 [Example 176, 6-(1-(7-acetyl-7-azaspiro[3.5]nonan-2-yl)-5-methyl-1H-pyrazol-4-yl)-4-((3-fluoropyridin-2-yl)thio)pyrazolo[1,5-a]pyridine-3-carbonitrile] |
| 1 | Cc1c(-c2cc(Sc3ncccc3F)c3c(C#N)cnn3c2)cnn1[C@H]1CC[C@@H](NS(C)(=O)=O)CC1 [Example 177, N-((1s,4s)-4-(4-(3-cyano-4-((3-fluoropyridin-2-yl)thio)pyrazolo[1,5-a]pyridin-6-yl)-5-methyl-1H-pyrazol-1-yl)cyclohexyl)methane-sulfonamide] |
| 1 | Cc1c(-c2cc(Sc3ncccc3F)c3c(C#N)cnn3c2)cnn1C1CCNC(C)(C)C1 (stereo not drawn) [Example 178] |
| 3 | Cc1c(-c2cc(Sc3ncccc3F)c3c(C#N)cnn3c2)cnn1[C@@H](C)CN(C)C [Example 179, (S)-6-(1-(1-(dimethylamino)propan-2-yl)-5-methyl-1H-pyrazol-4-yl)-4-((3-fluoropyridin-2-yl)thio)pyrazolo[1,5-a]pyridine-3-carbonitrile] |
| 15 | Cc1c(-c2cc(Sc3ncccc3F)c3c(C#N)cnn3c2)cnn1[C@H](C)CN(C)C [Example 180, (R)-6-(1-(1-(dimethylamino)propan-2-yl)-5-methyl-1H-pyrazol-4-yl)-4-((3-fluoropyridin-2-yl)thio)pyrazolo[1,5-a]pyridine-3-carbonitrile] |
| 7 | Cc1c(-c2cc(Sc3ncccc3F)c3c(C#N)cnn3c2)cnn1C[C@@H](C)N(C)C [Example 181, (R)-6-(1-(2-(dimethylamino)propyl)-5-methyl-1H-pyrazol-4-yl)-4-((3-fluoropyridin-2-yl)thio)pyrazolo[1,5-a]pyridine-3-carbonitrile] |
| 8 | Cc1c(-c2cc(Sc3ncccc3F)c3c(C#N)cnn3c2)cnn1C[C@H](C)N(C)C [Example 182, (S)-6-(1-(2-(dimethylamino)propyl)-5-methyl-1H-pyrazol-4-yl)-4-((3-fluoropyridin-2-yl)thio)pyrazolo[1,5-a]pyridine-3-carbonitrile] |
